{"source": "paper PMC7774954", "about": "“Interactomic affinity profiling by holdup assay: Acetylation and distal residues impact the PDZome-binding specificity of PTEN phosphatase” (PLoS ONE, 2020)", "key": {"[1]": {"target": "T1, SCRIB-3 (Homo sapiens, UniProt Q14160)", "T1 construct": "Representative holdup data recorded for three PDZ domains (MAST2-1, HTRA1-1, SCRIB-3); made in house; host or cells: E. coli", "T1 sequence (Q14160 1004-1093 limits assumed)": "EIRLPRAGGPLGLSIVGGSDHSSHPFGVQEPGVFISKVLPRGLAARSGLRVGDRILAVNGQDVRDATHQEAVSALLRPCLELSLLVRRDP", "experiment": "Competitive FP, SCRIB-3", "type": "binding", "settings": "SCRIB-3 + 50 nM f16E6", "description": "Protein concentrations were determined by far-UV absorption spectroscopy. A detailed protocol has been published previously."}, "[2]": {"tested_on": "LMO7-1", "experiment": "Holdup assay, LMO7-1", "type": "binding, human"}, "[3]": {"tested_on": "GRIP2-6", "experiment": "Holdup assay, GRIP2-6", "type": "binding, human"}, "[4]": {"target": "T2, CNKSR1-1 (Homo sapiens, UniProt Q969H4)", "T2 sequence (Q969H4 1-720)": "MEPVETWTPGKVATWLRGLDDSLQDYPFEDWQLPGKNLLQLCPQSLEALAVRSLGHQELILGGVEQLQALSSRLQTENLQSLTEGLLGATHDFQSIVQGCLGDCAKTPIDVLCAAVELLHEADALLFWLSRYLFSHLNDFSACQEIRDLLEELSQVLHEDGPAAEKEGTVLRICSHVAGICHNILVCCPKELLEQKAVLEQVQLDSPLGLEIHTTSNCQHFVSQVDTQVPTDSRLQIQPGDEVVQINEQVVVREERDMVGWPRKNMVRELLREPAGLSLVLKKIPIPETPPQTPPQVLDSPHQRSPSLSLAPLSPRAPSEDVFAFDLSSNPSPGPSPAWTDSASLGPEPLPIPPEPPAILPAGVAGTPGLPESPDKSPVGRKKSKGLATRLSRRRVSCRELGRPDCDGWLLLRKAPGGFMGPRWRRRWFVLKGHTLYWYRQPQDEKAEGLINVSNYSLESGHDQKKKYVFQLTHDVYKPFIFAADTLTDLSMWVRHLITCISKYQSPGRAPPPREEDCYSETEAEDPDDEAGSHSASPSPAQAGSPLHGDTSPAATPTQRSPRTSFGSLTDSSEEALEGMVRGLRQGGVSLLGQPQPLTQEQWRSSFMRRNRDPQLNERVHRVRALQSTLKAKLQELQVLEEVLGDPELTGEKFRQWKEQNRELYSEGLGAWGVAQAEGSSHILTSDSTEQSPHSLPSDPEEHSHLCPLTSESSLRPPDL", "experiment": "Holdup assay, CNKSR1-1", "type": "binding"}, "[5]": {"tested_on": "APBA2-1", "experiment": "Holdup assay, APBA2-1", "type": "binding, human"}, "[6]": {"target": "T3, PTPN13 PDZ 4 (Homo sapiens, UniProt Q12923)", "T3 construct": "made in house; host or cells: E. coli", "T3 sequence (Q12923 1788-1868 limits assumed)": "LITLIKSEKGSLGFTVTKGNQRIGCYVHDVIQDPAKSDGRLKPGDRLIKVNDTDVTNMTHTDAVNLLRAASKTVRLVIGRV", "experiment": "Holdup assay, PTPN13-4", "type": "binding", "settings": "for BI: PDZ domain PTPN13-4", "description": "The holdup assay was performed on a Tecan freedom Evo200 robot with 384-well plates in singlicate for the three 11-mer PTEN variants and the 13-mer PTEN peptide as described in [31, 32]. Briefly, prior to interaction assay, 2.5 μL of streptavidin resin was saturated in each well with 20 μL of biotinylated PBM peptides (42 μM) and then washed twice with an excess of free biotin, while the reference resin was incubated only with biotin. Right before the holdup experiment, the PDZ library was spiked with an internal standard of lysozyme. Then, the biotin- or PBM-saturated resin was incubated, each in a distinct well of a 384-well plate, with complete cell lysates diluted so that the concentration of the tag-PDZ present in the crude extract is adjusted at 4 μM. After a sufficient time to reach complex equilibrium (15 min.), a fast and mild filtration step is performed and the tag-PDZ concentrations were measured by capillary electrophoresis instrument (LabChip GXII, PerkinElmer, Massachusets, USA). Standard markers were used to convert migration time into molecular weight on the LabChip software and inappropriate molecular weight markers were corrected or excluded.\nFor filtered data, the BI was extracted with the following equation (Eq 1) that estimates the depleted fraction after superimposition of the sample and reference electropherograms: BI=Iref−Ilig/Iref (1) where Iref and Ilig are the intensities of the tag-PDZ peaks measured, for each PDZ domain/PBM peptide interaction pair, in the biotin reference and the PBM electropherograms, respectively.\nBIs were transformed into dissociation constants (KD) using the following formula: KD=([PDZtot]−BI·[PDZtot])·([PBMtot]−BI·[PDZtot])/BI·[PDZtot] (2) where [PDZtot] and [PBMtot] correspond to the total concentrations of the PDZ domain (usually around 4 μM) and the PBM peptide used during the assay. Since the PBMtot concentration in the resin during the holdup assay parameter may differ from one peptide to another and remains unknown, it is impossible to directly convert BI values into KD constants. We systematically determined the KD constants for a subset of PDZ/PBM pairs by competitive FP. […] For each PBM, the average peptide concentration was calculated after outlier rejection based on the absolute distances from the median as compared to three times the standard deviation (3σ rule), with never more than 2 values rejected."}, "[7]": {"target": "MPDZ-10 (Homo sapiens, UniProt O75970)", "sequence (O75970 whole entry)": "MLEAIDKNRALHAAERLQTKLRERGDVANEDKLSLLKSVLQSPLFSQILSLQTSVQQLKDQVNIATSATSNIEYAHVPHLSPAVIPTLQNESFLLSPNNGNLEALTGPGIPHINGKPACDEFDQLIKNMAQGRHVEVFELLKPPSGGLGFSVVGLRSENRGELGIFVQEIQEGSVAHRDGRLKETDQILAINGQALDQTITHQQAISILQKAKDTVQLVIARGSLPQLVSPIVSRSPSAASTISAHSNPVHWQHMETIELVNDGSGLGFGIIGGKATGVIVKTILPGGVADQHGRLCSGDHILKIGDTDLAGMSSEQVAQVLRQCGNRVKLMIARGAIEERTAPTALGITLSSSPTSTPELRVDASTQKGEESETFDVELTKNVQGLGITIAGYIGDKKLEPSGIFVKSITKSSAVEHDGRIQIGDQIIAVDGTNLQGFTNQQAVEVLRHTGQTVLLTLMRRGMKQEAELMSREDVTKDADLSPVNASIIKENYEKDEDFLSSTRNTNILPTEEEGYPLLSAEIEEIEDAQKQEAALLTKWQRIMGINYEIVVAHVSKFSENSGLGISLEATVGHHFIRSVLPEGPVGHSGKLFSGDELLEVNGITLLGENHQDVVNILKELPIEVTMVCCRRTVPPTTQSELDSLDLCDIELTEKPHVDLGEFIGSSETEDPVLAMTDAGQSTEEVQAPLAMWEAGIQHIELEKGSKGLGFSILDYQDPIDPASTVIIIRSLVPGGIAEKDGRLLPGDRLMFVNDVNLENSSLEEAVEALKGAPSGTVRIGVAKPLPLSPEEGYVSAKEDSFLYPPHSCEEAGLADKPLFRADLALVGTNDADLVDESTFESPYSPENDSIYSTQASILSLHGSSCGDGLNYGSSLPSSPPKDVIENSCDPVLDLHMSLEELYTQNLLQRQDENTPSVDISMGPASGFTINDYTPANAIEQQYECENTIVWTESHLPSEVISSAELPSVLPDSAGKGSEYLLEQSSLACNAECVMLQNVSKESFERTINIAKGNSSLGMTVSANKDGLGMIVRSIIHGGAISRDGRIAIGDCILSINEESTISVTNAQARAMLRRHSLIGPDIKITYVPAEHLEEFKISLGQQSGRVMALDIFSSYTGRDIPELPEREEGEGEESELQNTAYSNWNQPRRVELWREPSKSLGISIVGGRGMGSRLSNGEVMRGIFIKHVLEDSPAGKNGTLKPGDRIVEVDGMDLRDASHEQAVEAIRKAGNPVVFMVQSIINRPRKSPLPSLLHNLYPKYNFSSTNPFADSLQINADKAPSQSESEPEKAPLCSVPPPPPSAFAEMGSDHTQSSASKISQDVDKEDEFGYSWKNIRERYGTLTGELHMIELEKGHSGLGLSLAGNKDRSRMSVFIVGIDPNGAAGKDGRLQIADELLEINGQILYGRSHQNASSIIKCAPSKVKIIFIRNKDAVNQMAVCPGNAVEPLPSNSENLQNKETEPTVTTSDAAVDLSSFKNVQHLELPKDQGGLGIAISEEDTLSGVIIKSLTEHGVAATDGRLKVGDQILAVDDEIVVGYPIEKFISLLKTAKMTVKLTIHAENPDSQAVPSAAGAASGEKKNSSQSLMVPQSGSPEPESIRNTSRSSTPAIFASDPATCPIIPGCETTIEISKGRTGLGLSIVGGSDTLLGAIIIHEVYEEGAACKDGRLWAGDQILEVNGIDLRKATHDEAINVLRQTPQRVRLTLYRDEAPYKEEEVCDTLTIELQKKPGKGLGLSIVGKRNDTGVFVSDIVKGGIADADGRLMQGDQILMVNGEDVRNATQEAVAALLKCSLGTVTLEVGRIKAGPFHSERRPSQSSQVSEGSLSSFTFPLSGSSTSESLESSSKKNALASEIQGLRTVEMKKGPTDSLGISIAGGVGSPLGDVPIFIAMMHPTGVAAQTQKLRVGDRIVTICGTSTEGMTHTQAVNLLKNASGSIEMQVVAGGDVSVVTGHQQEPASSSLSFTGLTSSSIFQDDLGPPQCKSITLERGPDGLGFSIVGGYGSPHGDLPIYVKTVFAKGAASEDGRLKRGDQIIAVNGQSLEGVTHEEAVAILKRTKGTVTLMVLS", "experiment": "Holdup assay, MPDZ-10", "type": "binding"}, "[8]": {"target": "LNX1-4 (Homo sapiens, UniProt Q8TBB1)", "sequence (Q8TBB1 638-723)": "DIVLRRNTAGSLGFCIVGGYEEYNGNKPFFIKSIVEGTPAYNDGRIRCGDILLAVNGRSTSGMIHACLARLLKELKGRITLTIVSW", "experiment": "Holdup assay, LNX1-4", "type": "binding"}, "[9]": {"target": "APBA1-2 (Homo sapiens, UniProt Q02410)", "sequence (Q02410 747-822)": "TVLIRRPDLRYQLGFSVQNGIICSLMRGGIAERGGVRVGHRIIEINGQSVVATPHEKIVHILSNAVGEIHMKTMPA", "experiment": "Holdup assay, APBA1-2", "type": "binding"}, "[10]": {"tested_on": "AHNAK1-1", "experiment": "Holdup assay, AHNAK1-1", "type": "binding, human"}, "[11]": {"tested_on": "MAGI1-4", "experiment": "Holdup assay, MAGI1-4", "type": "binding, human"}, "[12]": {"tested_on": "CNKSR2-1", "experiment": "Holdup assay, CNKSR2-1", "type": "binding, human"}, "[13]": {"tested_on": "GRIP2-2", "experiment": "Holdup assay, GRIP2-2", "type": "binding, human"}, "[14]": {"tested_on": "DLG2-3", "experiment": "Holdup assay, DLG2-3", "type": "binding, human"}, "[15]": {"target": "GRID2IP-2 (Homo sapiens, UniProt A4D2P6)", "sequence (A4D2P6 whole entry)": "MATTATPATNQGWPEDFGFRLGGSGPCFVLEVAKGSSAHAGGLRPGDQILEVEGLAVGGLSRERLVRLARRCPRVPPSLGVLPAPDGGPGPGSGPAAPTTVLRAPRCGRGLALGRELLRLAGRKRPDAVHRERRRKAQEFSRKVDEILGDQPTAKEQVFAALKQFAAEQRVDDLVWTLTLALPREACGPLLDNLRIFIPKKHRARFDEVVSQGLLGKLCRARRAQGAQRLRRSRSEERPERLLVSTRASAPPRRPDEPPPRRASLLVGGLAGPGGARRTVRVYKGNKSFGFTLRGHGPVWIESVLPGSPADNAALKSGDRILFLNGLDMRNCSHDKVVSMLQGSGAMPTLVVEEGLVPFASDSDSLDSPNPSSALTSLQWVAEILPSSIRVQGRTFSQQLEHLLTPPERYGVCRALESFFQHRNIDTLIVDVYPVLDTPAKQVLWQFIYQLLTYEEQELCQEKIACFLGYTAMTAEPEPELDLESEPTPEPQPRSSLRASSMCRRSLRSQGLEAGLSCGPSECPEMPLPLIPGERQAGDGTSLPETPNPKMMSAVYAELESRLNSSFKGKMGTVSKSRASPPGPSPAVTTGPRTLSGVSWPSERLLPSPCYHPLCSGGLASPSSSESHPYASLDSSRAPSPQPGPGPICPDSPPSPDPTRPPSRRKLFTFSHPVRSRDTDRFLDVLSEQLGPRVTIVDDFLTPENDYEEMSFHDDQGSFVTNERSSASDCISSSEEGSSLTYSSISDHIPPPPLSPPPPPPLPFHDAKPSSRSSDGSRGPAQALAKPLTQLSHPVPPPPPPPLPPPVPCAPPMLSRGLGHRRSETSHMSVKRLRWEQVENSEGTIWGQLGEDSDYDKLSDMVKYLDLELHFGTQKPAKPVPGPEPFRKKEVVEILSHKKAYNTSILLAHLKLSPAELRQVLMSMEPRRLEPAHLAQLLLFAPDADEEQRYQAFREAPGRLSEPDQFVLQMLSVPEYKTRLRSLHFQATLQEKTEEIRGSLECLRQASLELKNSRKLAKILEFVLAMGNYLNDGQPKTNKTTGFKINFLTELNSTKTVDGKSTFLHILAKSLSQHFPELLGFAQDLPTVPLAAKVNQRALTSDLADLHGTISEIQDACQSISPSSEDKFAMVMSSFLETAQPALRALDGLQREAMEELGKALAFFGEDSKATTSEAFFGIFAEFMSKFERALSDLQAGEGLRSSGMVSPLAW", "experiment": "Holdup assay, GRID2IP-2", "type": "binding"}, "[16]": {"tested_on": "LNX1-1", "experiment": "Holdup assay, LNX1-1", "type": "binding, human"}, "[17]": {"tested_on": "GIPC3-1", "experiment": "Holdup assay, GIPC3-1", "type": "binding, human"}}, "note": "*1 amine or outer side, *2 acyl side, *3 side chain or, on linkers, in order; H or OH if unused. Where a SMILES comes first, the peptide text is derived from it. The star is where a group is joined. X1 = O=C(CCCC[C@@H]1SC[C@@H]2NC(=O)N[C@@H]21)NCCCOCCOCCOCCCN*; Suc = O=C(CCC(=O)[*:2])[*:1]", "data": [{"smiles": "CC[C@H](C)[C@H](NC(=O)[C@H](CCC(N)=O)NC(=O)[C@@H](NC(=O)[C@H](Cc1c[nH]cn1)NC(=O)[C@H](CCC(N)=O)NC(=O)[C@H](CC(=O)O)NC(=O)[C@H](CCC(=O)O)NC(=O)[C@H](CC(=O)O)NC(=O)CCC(=O)NCCCOCCOCCOCCCNC(=O)CCCC[C@@H]1SC[C@@H]2NC(=O)N[C@@H]21)[C@@H](C)O)C(=O)N[C@H](C(=O)N[C@@H](CCCCN)C(=O)N[C@H](C(=O)O)C(C)C)[C@@H](C)O", "note": "[PTEN_11]", "values": [{"measurement": "binding by holdup and competitive FP (in words)", "setting": "[1]", "value": "non-binding"}, {"measurement": "BI", "setting": "[2]", "value": -0.045}, {"measurement": "LogKD", "setting": "[2]", "value": 3.519}]}, {"smiles": "CC[C@H](C)[C@H](NC(=O)[C@H](CCC(N)=O)NC(=O)[C@@H](NC(=O)[C@H](Cc1c[nH]cn1)NC(=O)[C@H](CCC(N)=O)NC(=O)[C@H](CC(=O)O)NC(=O)[C@H](CCC(=O)O)NC(=O)[C@H](CC(=O)O)NC(=O)CCC(=O)NCCCOCCOCCOCCCNC(=O)CCCC[C@@H]1SC[C@@H]2NC(=O)N[C@@H]21)[C@@H](C)O)C(=O)N[C@H](C(=O)N[C@@H](CCCCNC(C)=O)C(=O)N[C@H](C(=O)O)C(C)C)[C@@H](C)O", "note": "[PTEN_Ac]", "values": [{"measurement": "BI", "setting": "[3]", "value": -0.084}, {"measurement": "LogKD", "setting": "[3]", "value": 3.605}, {"measurement": "BI", "setting": "[4]", "value": 0.116}, {"measurement": "BI", "setting": "[5]", "value": -0.029}, {"measurement": "LogKD", "setting": "[5]", "value": 3.605}, {"measurement": "Kd", "setting": "[6]", "value": 10.4, "unit": "µM"}, {"measurement": "BI", "setting": "[6]", "value": 0.707}, {"measurement": "binding of PTPN13-4 (in words)", "setting": "[6]; PTPN13-4", "value": "PTPN13-4 binds to PTEN_Ac"}, {"measurement": "BI", "setting": "[7]", "value": 0.391}, {"measurement": "Kd", "setting": "[7]", "value": 41.2, "unit": "µM"}]}, {"smiles": "CC[C@H](C)[C@H](NC(=O)[C@H](CCC(N)=O)NC(=O)[C@@H](NC(=O)[C@H](Cc1c[nH]cn1)NC(=O)[C@H](CCC(N)=O)NC(=O)[C@H](CC(=O)O)NC(=O)[C@H](CCC(=O)O)NC(=O)[C@H](CC(=O)O)NC(=O)[C@H](Cc1ccccc1)NC(=O)[C@@H]1CCCN1C(=O)CCC(=O)NCCCOCCOCCOCCCNC(=O)CCCC[C@@H]1SC[C@@H]2NC(=O)N[C@@H]21)[C@@H](C)O)C(=O)N[C@H](C(=O)N[C@@H](CCCCN)C(=O)N[C@H](C(=O)O)C(C)C)[C@@H](C)O", "note": "[PTEN_13] ({X1-Suc}-PFDEDQHTQITKV-OH)", "values": [{"measurement": "BI", "setting": "[3]", "value": -0.013}, {"measurement": "BI", "setting": "[8]", "value": 0.378}, {"measurement": "Kd", "setting": "[8]", "value": 25.5, "unit": "µM"}, {"measurement": "BI", "setting": "[9]", "value": 0.184}, {"measurement": "BI", "setting": "[10]", "value": -0.053}, {"measurement": "BI", "setting": "[4]", "value": -0.076}, {"measurement": "LogKD", "setting": "[4]", "value": 3.826}, {"measurement": "BI", "setting": "[11]", "value": 0.094}, {"measurement": "BI", "setting": "[5]", "value": 0.029}, {"measurement": "BI", "setting": "[12]", "value": -0.021}, {"measurement": "Kd", "setting": "[6]", "value": 35.8, "unit": "µM"}, {"measurement": "BI", "setting": "[6]", "value": 0.306}, {"measurement": "BI", "setting": "[7]", "value": 0.493}, {"measurement": "Kd", "setting": "[7]", "value": 15.5, "unit": "µM"}, {"measurement": "BI", "setting": "[13]", "value": -0.021}, {"measurement": "BI", "setting": "[14]", "value": 0.083}, {"measurement": "BI", "setting": "[15]", "value": -0.012}, {"measurement": "LogKD", "setting": "[15]", "value": 3.826}, {"measurement": "BI", "setting": "[16]", "value": 0.021}, {"measurement": "BI", "setting": "[17]", "value": 0.032}]}]}
